Measured values published in publication PMC5306062, “Pharmacology and toxicology of the novel investigational agent Cantrixil (TRX-E-002-1)” (Cancer Chemotherapy and Pharmacology, 2016).
Several values for one entry are separate records, joined by “and”; a condition that tells them apart may be missing. Equal entries are not always repeated.

What was measured:
[1] = test system: chemo-sensitive CD44−/MyD88− ovarian cancer cell lines; assay: Cell death in chemo-sensitive ovarian cancer cell lines; format: cell-based, human; settings: grown separately or in co-cultures
Source text: Tumour recurrence post-chemotherapy is caused by the regrowth of the surviving innately drug-resistant cancer stem cells that remain in tumour niches during and post-chemotherapy. The expansion of this chemo-resistant cancer cell population, coupled with upregulation of pro-survival pathways due to drug pressure, is thought to be responsible for the development of chemo-resistant recurrent disease. Further, the inherent heterogeneity of ovarian tumours consists of epithelial cells with varying potential for stemness, and a population of cancer cells with varying mesenchymal status and invasiveness potential. Therefore, to improve survival, a practical approach is the use of novel therapies that can induce cell death in these various subtypes of ovarian cancer cells. TRX-E-002-1 was assessed against ovarian cancer stem cell line OCSC2, characterised by their expression of stem cell markers including CD44 and […] [22]. A major characteristic of these cells is that they are drug resistant, able to form self-renewing spheroids in non-adherent culture, and recreate disseminated drug-resistant ovarian tumours that have a high degree of heterogeneity similar to the clinical profile observed in patients when inoculated into the peritoneal cavity of an immune-compromised mouse.

[2] = test system: human Panc-1 pancreatic tumour cells implanted orthotopically; assay: Orthotopic model of pancreatic cancer; format: in vivo, female NOD-SCID mice; settings: 100 mg/kg i.p. once daily in 20% SBECD, 18 consecutive days; p < 0.001
Procedure: Fig. 3 Efficacy of TRX-E-002-1 in an orthotopic model of pancreatic cancer. Female NOD-SCID mice were inoculated directly into the pancreas with PANC-1 human pancreatic epithelioid adenocarcinoma cells transfected with luciferase gene. Tumours were allowed to establish prior to treatment initiation. Animals were dosed with TRX-E-002-1 100 mg/kg i.p. for 18 consecutive days over which time tumour growth was monitored using bioluminescent imaging. Following euthanasia at the predetermined end-point, tumours were excised and weighed. Final tumour (plus pancreas) weights excised at the terminal time point. *p < 0.001

[3] = Dog GLP 28-day repeat-dose study, intraperitoneal three times per week; format: in vivo, beagle dogs
Procedure: For the dog GLP 28-day repeat-dose study, beagle dogs received intraperitoneal injections of vehicle (3:20 dilution of 20% SBECD in 0.9% saline) or Cantrixil (1, 10 or 30 mg/kg) three times per week for 4 weeks via an implanted catheter. Blood samples were collected from all dogs at 0.25, 0.5, 1, 2, 4 and 24 h after dosing on Days 1 and 26. […] Mean C max and AUClast values were similar in males and females and were greater than proportional to dose. […] Corresponding mean AUClast values on Day 1 were 71.4/80.5, 2810/2260 and 10,500/11,000 ng h/mL, respectively, for males/females.
Treatment-related clinical signs observed in males and females at 10 or 30 mg/kg included emesis, and soft or liquid faeces. […] Food consumption was affected to a lesser extent in females at 30 mg/kg and was not associated with discernible effect on body weight gain.
Similar changes were apparent but less severe in high-dose males and females after the 2-week recovery period. Coagulation parameters, serum chemistry, urinalysis and bone marrow examinations were unremarkable.
Red discoloration in the caecum was also observed in all male dogs and one female dog in the 30 mg/kg group. […] No treatment-related macroscopic abnormalities were observed after the recovery period.
In summary, the main toxicity findings following intraperitoneal administration of TRX-E-002-1 30 mg/kg in SBECD to beagle dogs three times per week for 4 weeks were emesis, soft and/or liquid faeces, leukocytosis with elevated neutrophil and monocyte counts, red discoloration in the caecum and degenerative changes in male reproductive organs. Some of these effects were also observed at the mid-dose of 10 mg/kg, while 1 mg/kg was a clear no-effect dose. […] No differences between sexes were apparent in toxic effects or systemic exposure, and the NOAEL for combined sexes was 10 mg/kg. The 10 mg/kg dose was also considered the highest non-severely toxic dose (HNSTD), and mean plasma AUClast for combined sexes at this dose was 2310 ng h/mL on Day 26.

[4] = test system: hERG single mutant (hERG-SM); assay: Surface expression of hERG single mutant; format: cell-based, human; settings: 0.1-10 μM
Procedure: However, at concentrations of 0.1-10 μM, the drug increased surface expression of the hERG single mutant (hERG-SM), identifying it as a potential blocker of hERG channel activity. […] Potential cardiovascular responses to intraperitoneal injection of TRX-E-002-1 were investigated in a GLP-compliant telemetry study in beagle dogs. Four male dogs received vehicle (20% SBECD) or TRX-E-002-1 (1, 10 or 30 mg/kg) on four separate occasions in a Latin Square design. Blood pressure, heart rate, ECG parameters and body temperatures were continuously recorded from 30 min before dosing until at least 24 h after each dose.

caspases 3/7 and 9 = assay: Caspase activity in OCSC2 cells; format: cell-based, human
Procedure: The role of caspases and intracellular signalling pathways in the anticancer activity of TRX-E-002-1 was investigated in OCSC2 ovarian cancer stem cells. […] TRX-E-002-1 also modulated phosphorylation of intracellular signalling molecules, with decreased levels of pERK (phosphorylated extracellular signal-regulated kinase) and increased levels of phosphorylated c-Jun (p–c-Jun). Activated p–c-Jun levels increased progressively over the 24-h incubation period in response to both concentrations of TRX-E-002-1 tested. […] Increased p–c-Jun and decreased pERK levels were observed following incubation of OCSC2 cells after only 2-h’ exposure, indicating these changes are one of the earliest effects of TRX-E-002-1 treatment.

[5] = test system: disseminated ovarian cancer model; assay: Disseminated ovarian cancer model, intraperitoneal dosing; format: in vivo, mice
Source text: In vivo, TRX-E-002-1, formulated in 20% SBECD, was active in a disseminated ovarian cancer model and a recurrent ovarian cancer model in which tumour recurrence is investigated following initial treatment of the OCSC2-inoculated mice with paclitaxel. In both models, TRX-E-002-1 inhibited tumour growth following once daily intraperitoneal administration.
The combination of TRX-E-002-1 and cisplatin was investigated in the murine model of disseminated ovarian cancer.

[6] = test system: CYP2C9, CYP2C8, CYP2C19, CYP2B6, CYP3A4, CYP2D6, CYP2A6 and CYP1A2; assay: Inhibition of cytochrome P450 enzymes in human hepatic microsomes; format: in vitro ADME; settings: liver microsomes, read-out: IC50 values, range over the CYP enzymes
Source text: The potential for pharmacokinetic drug interactions resulting from inhibition of drug-metabolizing cytochrome P450 enzymes was investigated in human hepatic microsomes in vitro. TRX-E-002-1 inhibited multiple cytochrome P450 drug-metabolizing enzymes, including CYP2C9, CYP2C8, CYP2C19, CYP2B6, CYP3A4, CYP2D6, CYP2A6 and CYP1A2. […] In particular, the potential interaction between Cantrixil and paclitaxel, a CYP2C9 substrate frequently used in the treatment of ovarian cancer, needs to be considered.

COc1cc([C@@H]2COc3c(ccc(O)c3C)[C@@H]2c2ccc(O)cc2)cc(OC)c1O [TRX-E-002-1, (+) cis-4-(para-hydroxyphenyl)-7,4′-dihydroxy-3′,5′-dimethoxy-8-methylisoflavan]
induction of cell death [1]: able to induce cell death
terminal pancreatic tumour burden [2]: significantly reduced
accumulation with three times weekly dosing ([3]; Day 26 vs Day 1): no accumulation
NOAEL at 4 weeks ([3]; both sexes, beagle, dog, in vivo, intraperitoneal, combined sexes): 10 mg/kg
AUC(0-t) ([3]; both sexes, beagle, dog, plasma, intraperitoneal, combined sexes, 10 mg/kg, Day 26, read-out: mean plasma AUClast): 2310 ng·h/mL
clear no-effect dose ([3]; dog, in vivo): 1 mg/kg
highest non-severely toxic dose (HNSTD) ([3]; dog, in vivo): 10 mg/kg
NOAEL at 4 weeks ([3]; female, beagle, dog, in vivo, intraperitoneal, females): 30 mg/kg
NOAEL at 4 weeks ([3]; male, beagle, dog, in vivo, intraperitoneal, males): 10 mg/kg
surface expression of hERG-SM [4]: increased
activity of caspases 3/7 and 9 (caspases 3/7 and 9): markedly increased
tumour growth ([5]; 100 mg/kg i.p. once daily in 20% SBECD for 13–14 days): significantly inhibited
tumour growth during the 16-day treatment period ([5]; TRX-E-002-1 100 mg/kg once daily, cisplatin 5 mg/kg once weekly, or both): significantly inhibited
tumour growth during the 5-week post-treatment period ([5]; after 16-day treatment, TRX-E-002-1 100 mg/kg once daily, cisplatin 5 mg/kg once weekly, or both): decreased
IC50 [6]: 1.5 µM to 75 µM and 0.612 µg/mL to 30.6 µg/mL
